One data set has as its system HBV. Description: Anti-viral assay in HepG2.2.15 cells: HBV inhibitory activity (HBV DNA in culture medium by q-PCR). Type of data set: cell-based. The conditions noted are these: Hepatitis B virus, HepG2.2.15, 144 h. The essentials:
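HepG2.2.15 cells seeded at 40,000/well in 2% FBS medium, dosed next day for 6 days (medium refreshed once midway); 8-point 3-fold dilutions from 10 uM top. HBV DNA in culture medium extracted and quantified by q-PCR; EC50 calculated from dose-response.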

Data set [1] is described as follows: Cytotoxicity determination in HepG2.2.15 cells (CCK-8). The conditions noted are these: human, 6 days treatment, CCK-8, highest concentration 100 uM. Type of data set: cell-based. Put shortly: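 HepG2.2.15 cells seeded at 5,000 cells/well in 2% FBS medium and exposed to compounds for 6 days (medium refreshed once), 8 three-fold dilutions from 100 uM. Viability read by CCK-8 after 2.5 h at 37 °C, absorbance 450 nm with 630 nm reference; CC50 calculated.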

Setting [2] is: HepG2.2.15 cells, 6 days treatment, HBV DNA in culture medium by q-PCR, highest concentration 10 uM, read-out: EC50.

Structures can show the parent of a compound that is named as a salt. Where two headings read alike, the source gives them in different places. Bounds are passed on as bounds.

For `CCOC(=O)C1=C([C@H]2CC[C@H](c3cc(C(=O)O)on3)CC2)NC(c2nccs2)=NC1c1ccc(F)c(F)c1Cl` (single isomer, unassigned) [Compound I-43-B], the EC50 with HBV (setting [2]) was determined as 0.029 µM. Further, the midpoint of cytotoxicity in data set [1], the CC50 at 6 days, lay at 13.7 µM.
With `CCOC(=O)C1=C([C@H]2CC[C@H](c3cnn(CC(=O)O)c3)CC2)NC(c2nccs2)=NC1c1ccc(F)c(F)c1Cl` (single isomer, unassigned) [Compound I-28-B, (trans)-2-(4-(4-(6-(2-chloro-3,4-difluorophenyl)-5-(ethoxycarbonyl)-2-(thiazol-2-yl)-3,6-dihydropyrimidin-4-yl)cyclohexyl)-1H-pyrazol-1-yl)acetic Acid], in the data set on HBV (setting [2]), the EC50 came out at 0.033 µM. For the same molecule, the half-maximal cytotoxic concentration (CC50) at 6 days in data set [1] was found to be 5.28 µM.
As for `COC(=O)C1=C(C2CCN(c3nc(C(=O)O)co3)CC2)NC(c2nccs2)=NC1c1ccc(F)c(F)c1Cl` (single isomer, unassigned) [II-33-B, 2-(4-(6-(2-Chloro-3,4-difluorophenyl)-5-(methoxycarbonyl)-2-(thiazol-2-yl)-3,6-dihydropyrimidin-4-yl)piperidin-1-yl)oxazole-4-carboxylic Acid], in the data set on HBV (setting [2]), the concentration giving a half-maximal response (EC50) came to 0.045 µM. In addition, the CC50 at 6 days in data set [1] came to 18.6 µM.
With `CCOC(=O)C1=C([C@H]2CC[C@H](c3nc(C(=O)O)co3)CC2)NC(c2nccs2)=NC1c1cccc(F)c1C` (single isomer, unassigned) [Compound I-11-B, (trans)-2-(4-(5-(Ethoxycarbonyl)-6-(3-fluoro-2-methylphenyl)-2-(thiazol-2-yl)-3,6-dihydropyrimidin-4-yl)cyclohexyl)oxazole-4-carboxylic Acid], the EC50 with HBV (setting [2]) was found to be 0.037 µM. The molecule also returned a CC50 at 6 days in data set [1] of 12.1 µM.
Consider `COC(=O)C1=C(C2CCN(c3nc(C(F)(F)F)c(C(=O)O)s3)CC2)NC(c2nccs2)=NC1c1ccc(F)c(F)c1Cl` (single isomer, unassigned) [II-31-B, 2-(4-(6-(2-Chloro-3,4-difluorophenyl)-5-(methoxycarbonyl)-2-(thiazol-2-yl)-3,6-dihydropyrimidin-4-yl)piperidin-1-yl)-4-(trifluoromethyl)thiazole-5-carboxylic Acid], for which, in the data set with HBV (setting [2]), the concentration for a half-maximal effect (EC50) turned out to be 0.025 µM. In data set [1], this molecule registered a CC50 at 6 days of 2.61 µM.
Turning to `COC(=O)C1=C(C2CCN(c3nc(C(=O)O)co3)CC2)NC(c2nccs2)=NC1c1ccc(F)cc1Cl` (single isomer, unassigned) [II-18-B, 2-(4-(6-(2-Chloro-4-fluorophenyl)-5-(methoxycarbonyl)-2-(thiazol-2-yl)-3,6-dihydropyrimidin-4-yl)piperidin-1-yl)oxazole-4-carboxylic Acid], the EC50 with HBV (setting [2]) came out at 0.089 µM. The CC50 at 6 days in data set [1] turned out to be 70 µM.
In the case of `CCOC(=O)C1=C([C@H]2CC[C@H](c3nc(C(=O)O)co3)CC2)NC(c2nccs2)=NC1c1ccc(F)cc1C` (single isomer, unassigned) [Compound I-12-C, (trans)-2-(4-(5-(Ethoxycarbonyl)-6-(4-fluoro-2-methylphenyl)-2-(thiazol-2-yl)-3,6-dihydropyrimidin-4-yl)cyclohexyl)oxazole-4-carboxylic Acid], the EC50 in the data set with HBV (setting [2]) was determined as 0.036 µM. This molecule returned a cytotoxic concentration (CC50) at 6 days in data set [1] of 11.1 µM.
For the molecule `CCOC(=O)C1=C(C2CCN(c3ncc(CC(=O)O)cn3)CC2)NC(c2nccs2)=NC1c1cccc(F)c1C` (single isomer, unassigned) [II-3-B, 2-(2-(4-(5-(ethoxycarbonyl)-6-(3-fluoro-2-methylphenyl)-2-(thiazol-2-yl)-3,6-dihydropyrimidin-4-yl)piperidin-1-yl)pyrimidin-5-yl)acetic Acid], the EC50 in the data set with HBV (setting [2]) is under 0.0046 µM. It took 4.22 µM to reach half-maximal cytotoxicity in data set [1] (CC50 at 6 days).
`CCOC(=O)C1=C([C@H]2CC[C@H](c3ncc(C(=O)O)o3)CC2)NC(c2nccs2)=NC1c1ccc(F)c(F)c1Cl` (single isomer, unassigned) [Compound I-26-B, (trans)-2-(4-(6-(2-chloro-3,4-difluorophenyl)-5-(ethoxycarbonyl)-2-(thiazol-2-yl)-3,6-dihydropyrimidin-4-yl)cyclohexyl)oxazole-5-carboxylic Acid]: the 50% effective concentration (EC50) with HBV (setting [2]) came out at 0.055 µM. It took 15.5 µM to reach half-maximal cytotoxicity in data set [1] (CC50 at 6 days).
For `CCOC(=O)C1=C([C@H]2CC[C@H](c3nc(C(=O)O)c(C)o3)CC2)NC(c2nccs2)=NC1c1ccc(F)c(F)c1Cl` (single isomer, unassigned) [Compound I-14-B, (trans)-2-(4-(6-(2-Chloro-3,4-difluorophenyl)-5-(ethoxycarbonyl)-2-(thiazol-2-yl)-3,6-dihydropyrimidin-4-yl)cyclohexyl)-5-methyloxazole-4-carboxylic Acid], the half-maximal effective concentration (EC50) in the data set with HBV (setting [2]) is 0.0047 µM. The midpoint of cytotoxicity in data set [1], the CC50 at 6 days, lay at 3.72 µM.
As for `CCOC(=O)C1=C(C2CCN(c3nc(OC)cc(C(=O)O)n3)CC2)NC(c2nccs2)=NC1c1ccc(F)c(F)c1Cl` (single isomer, unassigned) [II-57-B, 2-(4-(6-(2-chloro-3,4-difluorophenyl)-5-(ethoxycarbonyl)-2-(thiazol-2-yl)-3,6-dihydropyrimidin-4-yl)piperidin-1-yl)-6-methoxypyrimidine-4-carboxylic Acid], the EC50 in the data set on HBV (setting [2]) was 0.1 µM. In addition, the cytotoxic concentration (CC50) at 6 days in data set [1] was 4.88 µM.
On the same counts, the results for `CCOC(=O)C1=C([C@H]2CC[C@H](n3cc(C(=O)O)cn3)CC2)NC(c2nccs2)=NC1c1ccc(F)c(F)c1Cl` (single isomer, unassigned) [Compound I-38-B, (trans)-1-(4-(6-(2-Chloro-3,4-difluorophenyl)-5-(ethoxycarbonyl)-2-(thiazol-2-yl)-3,6-dihydropyrimidin-4-yl)cyclohexyl)-1H-pyrazole-4-carboxylic Acid] are under 0.0046 µM and 11.3 µM.
In the case of `COC(=O)C1=C(C2CCN(c3ncc(C)c(C(=O)O)n3)CC2)NC(c2nccs2)=NC1c1cccc(F)c1Br` (single isomer, unassigned) [II-98-B, 2-(4-(6-(2-Bromo-3-fluorophenyl)-5-(methoxycarbonyl)-2-(thiazol-2-yl)-3,6-dihydropyrimidin-4-yl)piperidin-1-yl)-5-methylpyrimidine-4-carboxylic Acid], the EC50 in the data set with HBV (setting [2]) was determined as 0.02 µM. Half-maximal cytotoxicity in data set [1] (CC50 at 6 days) was put at 21.4 µM.
As for `COC(=O)C1=C([C@H]2CC[C@H](c3nc(CC(=O)O)co3)CC2)NC(c2nccs2)=NC1c1ccc(F)cc1Cl` (single isomer, unassigned) [Compound I-17-A, (trans)-2-(2-(4-(6-(2-Chloro-4-fluorophenyl)-5-(methoxycarbonyl)-2-(thiazol-2-yl)-3,6-dihydropyrimidin-4-yl)cyclohexyl)oxazol-4-yl)acetic Acid], in the data set on HBV (setting [2]), the 50% effective concentration (EC50) amounted to 0.014 µM. This molecule registered a CC50 at 6 days in data set [1] of 25.7 µM.
Turning to `CCOC(=O)C1=C(C2CCN(c3cnc(C(=O)O)s3)CC2)NC(c2nccs2)=NC1c1ccc(F)c(F)c1Cl` (single isomer, unassigned) [II-76-B, 5-(4-(6-(2-Chloro-3,4-difluorophenyl)-5-(ethoxycarbonyl)-2-(thiazol-2-yl)-3,6-dihydropyrimidin-4-yl)piperidin-1-yl)thiazole-2-carboxylate lithium salt], in the data set on HBV, the EC50 turned out to be 0.09 µM. Moreover, the CC50 at 6 days in data set [1] worked out at 6.68 µM.
For the molecule `CCOC(=O)C1=C(C2CCN(c3cc(C(=O)O)c(C(F)(F)F)cn3)CC2)NC(c2nccs2)=NC1c1ccc(F)c(F)c1Cl` (single isomer, unassigned) [II-39-B, 2-(4-(6-(2-Chloro-3,4-difluorophenyl)-5-(ethoxycarbonyl)-2-(thiazol-2-yl)-3,6-dihydropyrimidin-4-yl)piperidin-1-yl)-5-(trifluoromethyl)isonicotinic Acid], in the data set on HBV (setting [2]), the EC50 is 0.014 µM. In data set [1], this molecule returned a CC50 at 6 days of 5.38 µM.
On the same counts, the results for `COC(=O)C1=C(C2CCN(c3nccc(CC(=O)O)n3)CC2)NC(c2nccs2)=NC1c1ccc(F)cc1Cl` (single isomer, unassigned) [II-13-A, 2-(2-(4-(6-(2-chloro-4-fluorophenyl)-5-(methoxycarbonyl)-2-(thiazol-2-yl)-3,6-dihydropyrimidin-4-yl)piperidin-1-yl)pyrimidin-4-yl)acetate] are 0.19 µM and 24.4 µM.
On to `COC(=O)C1=C(C2CCN(C(=O)c3cnn(C)c3)CC2)NC(c2nccs2)=NC1c1ccc(F)cc1Cl` (single isomer, unassigned) [II-12-B, Methyl 4-(2-chloro-4-fluorophenyl)-6-(1-(1-methyl-1H-pyrazole-4-carbonyl)piperidin-4-yl)-2-(thiazol-2-yl)-1,4-dihydropyrimidine-5-carboxylate], for which the EC50 in the data set on HBV (setting [2]) worked out at 0.066 µM. Moreover, the midpoint of cytotoxicity in data set [1], the CC50 at 6 days, lay at 25.5 µM.
Regarding `COC(=O)C1=C(C2CCN(c3nc(C(=O)O)cs3)CC2)NC(c2nccs2)=NC1c1ccc(F)c(F)c1Cl` (single isomer, unassigned) [II-32-B, 2-(4-(6-(2-Chloro-3,4-difluorophenyl)-5-(methoxycarbonyl)-2-(thiazol-2-yl)-3,6-dihydropyrimidin-4-yl)piperidin-1-yl)thiazole-4-carboxylic Acid], in the data set with HBV (setting [2]), the EC50 was determined as 0.046 µM. For the same molecule, the CC50 at 6 days in data set [1] amounted to 11.1 µM.
As for `CCOC(=O)C1=C(C2CCN(c3ncc([C@]4(O)C[C@@H](C(=O)O)C4)cn3)CC2)NC(c2nccs2)=NC1c1ccc(F)c(F)c1Cl` (single isomer, unassigned) [II-55-B, (trans)-3-(2-(4-(6-(2-Chloro-3,4-difluorophenyl)-5-(ethoxycarbonyl)-2-(thiazol-2-yl)-3,6-dihydropyrimidin-4-yl)piperidin-1-yl)pyrimidin-5-yl)-3-hydroxycyclobutanecarboxylic Acid], the EC50 in the data set on HBV (setting [2]) is under 0.0046 µM. Moreover, the CC50 at 6 days in data set [1] turned out to be 7.96 µM.

For the origin of these results see patent publication US11053235B2, “Substituted 1,4-dihydropyrimidines for the treatment of HBV infection or HBV-induced diseases” (Janssen Sciences Ireland Unlimited Company, priority 2018, dated 2021).
